Measured values: patent publication US7589096B2, “Azole derivatives” (Banyu Pharmaceutical Co., Ltd., priority 2002, dated 2009)
Where a name gives a salt, the structure may show the parent alone. Read-outs that look alike come from different tables or passages of the source.

Legend:
[1] = molecular target: T1, human NPY Y5 receptor (Homo sapiens, UniProt Q15761); test: NPY binding inhibition test ([125I]peptide YY binding to membranes of NPY Y5 receptor expression cells); settings: [125I]peptideYY, membrane sample, 25° C., 2 hours; read-out: IC50 against specific peptide YY binding
T1 construct: expressed in transfected cells; host or cells: COS-7, CHO and LM(tk-)
T1 sequence (Q15761 1-445): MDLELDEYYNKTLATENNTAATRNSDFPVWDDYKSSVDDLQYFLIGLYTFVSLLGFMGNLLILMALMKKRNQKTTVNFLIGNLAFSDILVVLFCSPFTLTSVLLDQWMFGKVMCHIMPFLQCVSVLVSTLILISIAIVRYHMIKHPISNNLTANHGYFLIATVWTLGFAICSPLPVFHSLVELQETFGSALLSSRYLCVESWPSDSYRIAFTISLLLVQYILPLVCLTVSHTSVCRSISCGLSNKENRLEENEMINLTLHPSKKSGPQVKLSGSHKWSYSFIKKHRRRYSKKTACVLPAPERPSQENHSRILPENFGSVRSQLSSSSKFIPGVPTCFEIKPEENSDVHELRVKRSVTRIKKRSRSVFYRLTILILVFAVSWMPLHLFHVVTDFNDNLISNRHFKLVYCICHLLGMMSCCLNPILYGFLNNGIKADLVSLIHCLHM
Description: cDNA sequence encoding human NPY Y5 receptor (cf. International patent publication number WO96/16542) was cloned into expression vectors pcDNA3, pRc/RSV (made by invitrogen Inc.) and pCI-neo (made by Promega Inc.). The expression vectors thus obtained were transfected to host cells COS-7, CHO and LM(tk-) (American Type Culture Collection) by cationic lipid method (Proceedings of the National Academy of Sciences of the United States of America, 84: 7413 (1987)) to give NPY Y5 receptor expression cells.
A membrane sample prepared from the cells which expressed NPY Y5 receptor was incubated together with a test compound and [^125I]peptideYY (made by NEN) (20,000 cpm) in man assay buffer (25 mM Tris buffer, pH 7.4, containing 10 mM magnesium chloride, 1 mM phenylmethylsulfonyl fluoride, 0.1% bacitracin and 0.5% bovine serum albumin) at 25° C. for 2 hours, then filtered through a glass filter GF/C and washed with 5 mM Tris buffer (pH7.4) containing 0.3% BSA. The radioactivity of the cake on the glass filter was measured. Non-specific binding was measured in the presence of 1 μM peptide YY, and a 50% Inhibitory Concentration (IC50) of the test compound against specific peptide YY binding was determined (Endocrinology; 131: 2090 (1992)).

[2] = Brain/cerebrospinal fluid transport test; type: in vivo; settings: male SD rats, 2 hours after oral administration (10 mg/kg); for concentration at 2 h: rat
Description: A test compound was orally or intravenously administered to male SD rats (7-10 weeks old, 200-400 g), and whole blood was collected from the abdominal aorta of said rats anesthetized with ether at predetermined time, using a heparin-treated syringe. Then, the head skin was cut open, and a dental 30 G needle was inserted between the cervical vertebrae, and it was further inserted into the cavum subarachnoideale. After 50 to 100 μL cerebrospinal fluid had been collected by a 1 ml-syringe through a tube connected to said dental 30 G needle, the brain was extracted. The blood sample was centrifuged (4° C., 6,000 r.p.m., 10 minutes) to collect the plasma, to which was added 3-fold amount of ethanol containing an internal standard, and the mixture was stirred. The brain sample was homogenized after addition of 2 ml water, an aliquot of the homogenate was taken and 3-fold amount of ethanol containing an internal standard was added thereto and stirred. The cerebrospinal fluid was stirred after adding 3-fold amount of ethanol containing an internal standard. The samples thus obtained were allowed to stand at −20° C. for 20 minutes, and then centrifuged (4° C., 12,000 g, 10 minutes). The supernatant was analyzed by LC/MS/MS, and the concentration of the test compound in the plasma, brain, and cerebrospinal fluid were measured by the method using a relative calibration curve.

Row | SMILES | IC50 [1] [nM] | further results
1 | O=C1OC2(CCC(c3cc(-c4cncc(-c5ccccc5)n4)[nH]n3)CC2)c2ccccc21 (stereo not drawn) [Example 24, trans-3-[3′-oxospiro[cyclohexane-1,1′(3′H)-isobenzofuran]-4-yl]-5-(6-phenylpyrazin-2-yl)-1H-pyrazole] | 3.9 | –
2 | O=C1OC2(CCC(c3nn4nc(-c5ccccc5F)cc4[nH]3)CC2)c2cnccc21 (stereo not drawn) [Example 34, trans-6-(2-fluorophenyl)-2-[3-oxospiro[6-azaisobenzofuran-1(3H),1′-cyclohexan]-4′-yl]-1H-pyrazolo[2,3-b][1,2,4]-triazole] | 3.5 | –
3 | O=C1OC2(CCC(c3cc(-c4ccnc(-c5ccccc5)n4)[nH]n3)CC2)c2cnccc21 (stereo not drawn) [Example 29, trans-3-[3-oxospiro[6-azaisobenzofuran-1(3H),1′-cyclohexan]-4′-yl]-5-(2-phenylpyrimidin-4-yl)-1H-pyrazole] | 3.9 | concentration in the brain [2]: 3.01 nmol/g; concentration at 2 h ([2]; cerebrospinal fluid, read-out: concentration in the cerebrospinal fluid): 15 nM; concentration at 2 h ([2]; plasma, read-out: concentration in the plasma): 1160 nM
4 | O=C1OC2(CCN(c3cc(-c4ccnc(-c5ccccc5)c4)[nH]n3)CC2)c2ccccc21 [Example 14, 3-[3-oxospiro[isobenzofuran-1(3H),4′-piperidin]-1′-yl]-5-(2-phenylpyridin-4-yl)-1H-pyrazole] | 1.7 | –
5 | O=C1OC2(CCN(c3nc(-c4ccc5ccccc5c4)c[nH]3)CC2)c2ccccc21 [Example 1, 4-(2-naphthyl)-2-[3-oxospiro[isobenzofuran-1(3H),4′-piperidin]-1′-yl]-1H-imidazole hydrochloride] | 1.7 | –
6 | O=C1OC2(CCN(c3nc(-c4ccc5ccccc5c4)n[nH]3)CC2)c2ccccc21 [Example 30, 3-(2-naphthyl)-5-[3-oxospiro[isobenzofuran-1-(3H),4′-piperidin]-1′-yl]-1H-1,2,4-triazole] | 4.2 | –
7 | O=C1OC2(CCN(c3cc(-c4ccnc(-c5ccccc5)n4)[nH]n3)CC2)c2ccccc21 [Example 19, 3-[3-oxospiro[isobenzofuran-1(3H),4′-piperidin]-1′-yl]-5-(2-phenylpyrimidin-4-yl)-1H-pyrazole] | 1.6 | –
8 | O=C1OC2(CCC(c3cc(-c4ccnc(-c5ccccc5)n4)[nH]n3)CC2)c2ccccc21 (stereo not drawn) [Example 23, trans-3-[3′-oxospiro[cyclohexane-1,1′(3′H)-isobenzofuran]-4-yl]-5-(2-phenylpyrimidin-4-yl)-1H-pyrazole] | 2.7 | –

Now from value to compound, other results behind:

Row | IC50 [1] [nM] | SMILES | further results
9 | 1.5 | O=C1OC2(CCN(c3cc(-c4ccnc(-c5ccccc5)n4)[nH]n3)CC2)c2cnccc21 [Example 45, 3-[3-oxospiro[6-azaisobenzofuran-1(3H),4′-piperidin]-1′-yl]-5-(2-phenylpyrimidin-4-yl)-1H-pyrazole] | –
10 | 3.3 | O=C1OC2(CCC(c3nn4nc(-c5ccccc5)cc4[nH]3)CC2)c2cnccc21 (stereo not drawn) [Example 35, trans-2-[3-oxospiro[6-azaisobenzofuran-1(3H),1′-cyclohexan]-4′-yl]-6-phenyl-1H-pyrazolo[2,3-b][1,2,4]triazole] | –
11 | 1.8 | O=C1OC2(CCC(c3nn4nc(-c5ccccc5)cc4[nH]3)CC2)c2ccccc21 (stereo not drawn) [Example 36, trans-2-[3′-oxospiro[cyclohexane-1,1′(3′H)-isobenzofuran]-4-yl]-6-phenyl-1H-pyrazolo[2,3-b][1,2,4]triazole] | –
12 | 1.5 | O=C1OC2(CCN(c3cc(-c4ccnc(-c5ccccc5F)n4)[nH]n3)CC2)c2cnccc21 [Example 46, 3-[3-oxospiro[6-azaisobenzofuran-1(3H),4′-piperidin]-1′-yl]-5-[2-(2-fluorophenyl)pyrimidin-4-yl]-1H-pyrazole] | –
13 | 2.2 | O=C1OC2(CCN(c3cc(-c4ccnc(-c5ccc(F)cc5)n4)[nH]n3)CC2)c2cnccc21 [Example 47, 3-[3-oxospiro[6-azaisobenzofuran-1(3H),4′-piperidin]-1′-yl]-5-[2-(4-fluorophenyl)pyrimidin-4-yl]-1H-pyrazole] | –
